Assay results taken from PubChem BioAssay (NCI).
Several values for one entry are separate records, joined by “and”; a condition that tells them apart may be missing. Equal entries are not always repeated.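 Following 48 hours of exposure in 96-well plates, responses at five concentrations were used to interpolate endpoints linearly. GI50 = concentration required for 50% inhibition of growth. TGI denotes the concentration required for complete inhibition of growth.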 Where a SMILES comes first, the peptide text is derived from it. The star is where a group is joined. Boc = CC(C)(C)OC(=O)*; OBn = c1ccc(CO*)cc1; Bn = c1ccc(C*)cc1

How the values were obtained:
Experiment in all cases: NCI tumour cell line growth inhibition, 48 h
EKVX NSCLC = system: EKVX NSCLC
HCT-116 colon = system: HCT-116 colon
HOP-92 NSCLC = system: HOP-92 NSCLC
IGROV1 ovarian = system: IGROV1 ovarian
KM12 colon = system: KM12 colon
OVCAR-3 ovarian = system: OVCAR-3 ovarian
PC-3 prostate = system: PC-3 prostate
SF-539 CNS = system: SF-539 CNS
SK-MEL-2 melanoma = system: SK-MEL-2 melanoma
SK-MEL-28 melanoma = system: SK-MEL-28 melanoma
SNB-75 CNS = system: SNB-75 CNS
SW-620 colon = system: SW-620 colon
NCI/ADR-RES ovarian = system: NCI/ADR-RES ovarian

SMILES	TGI (EKVX NSCLC)	TGI (HCT-116 colon)	TGI (HOP-92 NSCLC)	TGI (IGROV1 ovarian)	TGI (KM12 colon)	TGI (OVCAR-3 ovarian)	TGI (PC-3 prostate)	TGI (SF-539 CNS)	TGI (SK-MEL-2 melanoma)	TGI (SK-MEL-28 melanoma)	TGI (SNB-75 CNS)	TGI (SW-620 colon)	GI50 (HCT-116 colon)	GI50 (IGROV1 ovarian)	GI50 (KM12 colon)	GI50 (NCI/ADR-RES ovarian)	TGI (NCI/ADR-RES ovarian)	GI50 (OVCAR-3 ovarian)	GI50 (SK-MEL-28 melanoma)	GI50 (SNB-75 CNS)
CCC1=C(C)C2=NC1=CC1=NC(=C(CC)/C1=C/O)C=C1N=C3C(=C1C)C(=O)C(C(=O)OC)C3=C1NC(=C2)C(C)C1CCC(=O)OC (configuration not stated)	> 100 µM	> 100 µM	> 100 µM	> 100 µM	> 100 µM	> 100 µM	> 100 µM	> 100 µM	> 100 µM	> 100 µM	> 100 µM	> 100 µM	–	–	–	–	–	–	–	–
CC(=O)OCC1OC(n2c(-c3ccccc3)c(N=Nc3ccc(Cl)cc3)c(C)c(C#N)c2=S)C(OC(C)=O)C(OC(C)=O)C1OC(C)=O (configuration not stated)	–	> 100 µM	–	> 100 µM	24.4 µM and > 100 µM	52.5 µM and > 100 µM	37.4 µM and > 100 µM	43.7 µM and > 100 µM	39.6 µM and > 100 µM	16.9 µM and > 100 µM	> 100 µM and 26.4 µM	34.6 µM and > 100 µM	6.61 µM and 30.2 µM	7.17 µM and 29.9 µM	9.22 µM and 85.4 µM	6.76 µM and 33.2 µM	> 100 µM	4.77 µM and 39.8 µM	4.58 µM and 30.3 µM	25.5 µM and 4.24 µM
COc1ccc2c(c1)CC[C@@H]1C2CC[C@]2(C)OC(=O)CCC12 (some centres not stated)	21.3 µM	21.6 µM	40.6 µM	> 100 µM	> 100 µM	31.4 µM	61.1 µM	30.4 µM	66.5 µM	34.3 µM	–	24.3 µM	–	–	–	–	33.4 µM	–	–	–
CC(C)(C)NCC(O)COc1cccc2[nH]c(C#N)cc12 (configuration not stated)	> 100 µM	> 100 µM	–	> 100 µM	> 100 µM	> 100 µM	> 100 µM	> 100 µM	> 100 µM	> 100 µM	–	> 100 µM	–	–	–	–	> 100 µM	–	–	–
COc1ccc2cc(C(=O)NCCc3ccccc3)ccc2c1OC	> 100 µM	> 100 µM	> 100 µM	> 100 µM	–	> 100 µM	> 100 µM	70.3 µM	> 100 µM	> 100 µM	–	> 100 µM	–	–	–	–	> 100 µM	–	–	–
CC(C)CC(NC(=O)C(Cc1ccccc1)NC(=O)C(COCc1ccccc1)NC(=O)OC(C)(C)C)C(=O)OCc1ccccc1 (stereo not drawn) (Boc-Ser(Bn)-Phe-Leu-OBn; configuration not given here)	61.5 µM	32.9 µM	–	31.8 µM	–	> 100 µM	57.6 µM	72.3 µM	> 100 µM	42 µM	57.6 µM	56.7 µM	–	–	–	–	> 100 µM	–	–	–
CC(=O)NC1C(OCC(=O)NC(C)C(=O)NC(CCC(=O)NCCCCCNc2ccc([N+](=O)[O-])c3[nH]c4ccccc4c(=O)c23)C(N)=O)C(O)C(CO)OC1(C)OCc1ccccc1 (configuration not stated)	> 50 µM	> 50 µM	–	> 50 µM	> 50 µM	> 50 µM	> 50 µM	> 50 µM	> 50 µM	–	> 50 µM	> 50 µM	–	–	–	–	> 50 µM	–	–	–
CC(=O)OC1COC(N2C(=O)C(=O)c3cc(Br)c([N+](=O)[O-])cc32)C(OC(C)=O)C1OC(C)=O (configuration not stated)	> 100 µM	> 100 µM	93.3 µM	> 100 µM	> 100 µM	> 100 µM	–	> 100 µM	> 100 µM	> 100 µM	81.4 µM	> 100 µM	–	–	–	–	–	–	–	–
CCCCCCc1cc(C=O)sc1-c1ccc(-c2sc(-c3ccc(-c4ccc(-c5cc(CCCCCC)c(-c6ccc(-c7sc(C=O)cc7CCCCCC)s6)s5)s4)s3)cc2CCCCCC)s1	> 100 µM	> 100 µM	> 100 µM	> 100 µM	> 100 µM	> 100 µM	> 100 µM	> 100 µM	> 100 µM	> 100 µM	–	> 100 µM	–	–	–	–	> 100 µM	–	–	–
N#CC(C(=O)c1ccccc1F)c1nc2cc(C(F)(F)F)ccc2s1 (configuration not stated)	81.6 µM	41.9 µM	56.2 µM	> 100 µM	> 100 µM	52.7 µM	–	78.5 µM	–	> 100 µM	> 100 µM	82.4 µM	–	–	–	–	> 100 µM	–	–	–
Cc1cccc(Nc2cn(CCOc3ccccc3)c(=O)[nH]c2=O)c1	39.8 µM	> 100 µM	84 µM	54.9 µM	> 100 µM	52.8 µM	72.3 µM	–	–	> 100 µM	–	> 100 µM	–	–	–	–	9.06 µM	–	–	–
COc1ccc(NS(=O)C2CCCCC2)cc1 (configuration not stated)	> 100 µM	> 100 µM	–	> 100 µM	> 100 µM	> 100 µM	–	> 100 µM	–	> 100 µM	> 100 µM	> 100 µM	–	–	–	–	> 100 µM	–	–	–
N#Cc1nn(-c2ccc(Cl)cc2)c(N)c2c(=N)n3nc(-c4ccccc4)cc3nc12	> 100 µM	> 100 µM	–	> 32 µM	> 100 µM	> 35.5 µM	–	–	> 20.7 µM	–	> 68.4 µM	> 100 µM	–	–	–	–	–	–	–	–
CC(C)=NN/C(=N\S(=O)(=O)c1cc(Cl)c(Oc2ccc([N+](=O)[O-])cc2Cl)c(Cl)c1)Nc1ccc(Cl)cc1	> 100 µM	> 100 µM	> 100 µM	> 100 µM	> 100 µM	> 100 µM	> 100 µM	–	> 100 µM	> 100 µM	–	> 100 µM	–	–	–	–	> 100 µM	–	–	–
O=Cc1cc(O)c(O)c(O)c1-c1c(C=O)cc(O)c(O)c1O	> 100 µM	> 100 µM	–	> 100 µM	> 100 µM	> 100 µM	–	> 100 µM	> 100 µM	> 100 µM	> 100 µM	> 100 µM	–	–	–	–	–	–	–	–
COC(=O)c1c(C)nc(C)c(N=O)c1-c1ccccc1C(F)(F)F	> 100 µM	31.8 µM	34.8 µM	33.9 µM	35.9 µM	31.3 µM	> 100 µM	45.8 µM	> 100 µM	28.4 µM	–	30.1 µM	–	–	–	–	44.5 µM	–	–	–
CC1OC(OC2C(CO)OC(O[C@H]3CC[C@@]4(C)C(=CC[C@H]5[C@@H]6C[C@@H]7O[C@](O)(CC[C@@H](C)COC8OC(CO)C(O)C(O)C8O)[C@@H](C)[C@@H]7[C@@]6(C)CC[C@@H]54)C3)C(OC3OC(C)C(O)C(O)C3O)C2O)C(O)C(O)C1O (some centres not stated)	57.1 µM	4.76 µM	–	–	6.85 µM	29.8 µM	5.51 µM	4.21 µM	12.3 µM	7.55 µM	3.26 µM	2.97 µM	–	–	–	–	4.22 µM	–	–	–
Cc1cc2nc3c(C#N)c(-c4ccccc4)/c(=C\Nc4cccc(C(F)(F)F)c4)c(=O)n3c2cc1C	> 100 µM	> 100 µM	–	–	> 100 µM	54.4 µM	> 100 µM	> 100 µM	> 100 µM	> 100 µM	> 100 µM	> 100 µM	–	–	–	–	> 100 µM	–	–	–
Cc1nn(-c2ccccc2)c(C)c1/C=N/NC(=O)c1sc(=S)n(-c2ccc(Cl)cc2)c1N	8.91 µM	> 100 µM	–	4.26 µM	> 100 µM	> 100 µM	> 100 µM	> 100 µM	> 100 µM	> 100 µM	5.49 µM	> 100 µM	–	–	–	–	> 100 µM	–	–	–
COc1ccc(N=NN2CCCC2)cc1	58.8 µM	38.6 µM	42.4 µM	41 µM	14.7 µM	43.8 µM	> 100 µM	66.7 µM	> 100 µM	> 100 µM	–	81.4 µM	–	–	–	–	–	–	–	–
CC1(C)COC(c2cccc(C3=NC(C)(C)CO3)c2)=N1	> 100 µM	> 100 µM	> 100 µM	> 100 µM	> 100 µM	–	> 100 µM	> 100 µM	> 100 µM	> 100 µM	–	> 100 µM	–	–	–	–	> 100 µM	–	–	–
Fc1ccc(C(=NCc2ccccc2)N2CCOCC2)cc1	> 100 µM	> 100 µM	–	> 100 µM	> 100 µM	> 100 µM	> 100 µM	> 100 µM	> 100 µM	> 100 µM	> 100 µM	> 100 µM	–	–	–	–	> 100 µM	–	–	–
CCOC(=O)Nc1ccc(S(=O)(=O)Nc2ccc(Br)cc2)cc1	89.5 µM	> 100 µM	> 100 µM	> 100 µM	> 100 µM	> 100 µM	> 100 µM	35.4 µM	> 100 µM	> 100 µM	–	> 100 µM	–	–	–	–	> 100 µM	–	–	–
OC(Cn1cncn1)(Cn1cncn1)c1ccc(Cl)cc1Cl	–	> 100 µM	> 100 µM	> 100 µM	> 100 µM	> 100 µM	–	> 100 µM	> 100 µM	> 100 µM	> 100 µM	> 100 µM	–	–	–	–	–	–	–	–
COC(=O)CP1(=O)OC2C(C3CCC2(C)C3(C)C)N1c1cc(C(F)(F)F)cc(C(F)(F)F)c1 (configuration not stated)	> 100 µM	40.7 µM	–	> 100 µM	54.7 µM	34.4 µM	74.9 µM	45.8 µM	46.4 µM	> 100 µM	51.9 µM	88.3 µM	–	–	–	–	55.9 µM	–	–	–
COC(=O)CSc1[nH]c2nc(C)nc(Nc3ccccc3)c2c1C#N	> 10 µM	–	> 10 µM	> 10 µM	> 10 µM	–	> 10 µM	–	–	> 10 µM	> 10 µM	> 10 µM	–	–	–	–	–	–	–	–
O=c1[nH]c2ccc(CC(=S)N3CCN(c4ccccc4)CC3)cc2s1	> 100 µM	> 100 µM	–	> 100 µM	> 100 µM	> 100 µM	> 100 µM	> 100 µM	> 100 µM	> 100 µM	–	> 100 µM	–	–	–	–	69.3 µM	–	–	–
